Target: T1, mutant BKCa channel (G803D/N806K) (Rattus norvegicus, UniProt Q62976, G803D/N806K)
T1 construct: expressed in transfected cells
Assay: Cell-based TI+ fluorescence (FluxOR) assay in AD-293 cells
Details: for TI+-fluorescence enhancement (initial RFU increase): 10 μM, n=4
Experimental: AD-293 cells (Lee et al., 2013), as a modified HEK293 cell for expressing a mutant BKCa channel, were placed in DMEM (Dulbecco's Modified Eagle's medium) supplemented with 10% fetal bovine serum and 1 mg/ml geneticin (Gibco) as an antibiotic. The cells were cultured under a humidified condition of 5% CO2 and 37° C.
AD-293 cells stably expressing the mutant BKCa channel (G803D/N806K) were used for cell-based assays (Lee et al., 2013). Approximately 20,000 cells/well were inoculated on a black-wall assay plate (Corning Incorporated) coated with poly-D-lysine (Sigma-Aldrich), which is 96-well clear-bottom. A FluxOR™ […] (Invitrogen) was used for initial screening of compound libraries, and for further assay of candidate compounds. Experiments were performed according to the manufacturer's following guidelines: growth medium was replaced with 80 μl/well of loading buffer containing FluxOR™ fluorescent dye, and incubation was carried out for 1 hour under a light-free condition. After the incubation, the loading buffer was replaced with 100 μl/well of assay buffer containing various concentrations of compounds of interest, followed by incubation for 20 minutes to 30 minutes. DMSO (1%) was vehicle and the vehicle was used for all test compounds. CTBIC (Cormemis et al. 2005; Lee et al. 2012), previously identified as an activator of the BKCa channel, was used as a positive control. For fluorescence measurements, synergy TM H1 hybrid multi-mode microplate reader (BioTek Instrument Inc., Winnoski, Vt.) and Cen5 software was used in initial screening. For additional assays, Flexstation 3 multi-mode microplate reader (Molecular Devices) and SoftMax®Pro software were used, respectively. A fluorescence signal was obtained at an excitation wavelength of 485 nm and an emission wavelength of 528 nm. Membrane polarization was induced by a stimulus buffer containing thallium ion. The fluorescence signal was measured under two conditions: every 10 seconds for 2 minutes before treating the stimulation buffer and then every 10 seconds for 3 minutes after addition of stimulation buffer for synergy H1, and every 2 seconds for 20 seconds before stimulus buffer treatment, and then every 2 seconds for 160 seconds after adding the stimulus buffer for FlexStation 3.
A fluorescence signal change was measured based on a relative fluorescence unit (RFU) or F/F0 where F0 is ta minimum fluorescence value of each fluorescence trace. To quantitatively compare activation effects of kurarinone and its derivatives, an initial fluorescence increase was calculated using first three points after treatment with the stimulation buffer, and a linear slope was predicted using OriginPro 9.1 (OriginLab Corp., Northampton, Mass.).

T1 sequence (Q62976 whole entry G803D/N806K): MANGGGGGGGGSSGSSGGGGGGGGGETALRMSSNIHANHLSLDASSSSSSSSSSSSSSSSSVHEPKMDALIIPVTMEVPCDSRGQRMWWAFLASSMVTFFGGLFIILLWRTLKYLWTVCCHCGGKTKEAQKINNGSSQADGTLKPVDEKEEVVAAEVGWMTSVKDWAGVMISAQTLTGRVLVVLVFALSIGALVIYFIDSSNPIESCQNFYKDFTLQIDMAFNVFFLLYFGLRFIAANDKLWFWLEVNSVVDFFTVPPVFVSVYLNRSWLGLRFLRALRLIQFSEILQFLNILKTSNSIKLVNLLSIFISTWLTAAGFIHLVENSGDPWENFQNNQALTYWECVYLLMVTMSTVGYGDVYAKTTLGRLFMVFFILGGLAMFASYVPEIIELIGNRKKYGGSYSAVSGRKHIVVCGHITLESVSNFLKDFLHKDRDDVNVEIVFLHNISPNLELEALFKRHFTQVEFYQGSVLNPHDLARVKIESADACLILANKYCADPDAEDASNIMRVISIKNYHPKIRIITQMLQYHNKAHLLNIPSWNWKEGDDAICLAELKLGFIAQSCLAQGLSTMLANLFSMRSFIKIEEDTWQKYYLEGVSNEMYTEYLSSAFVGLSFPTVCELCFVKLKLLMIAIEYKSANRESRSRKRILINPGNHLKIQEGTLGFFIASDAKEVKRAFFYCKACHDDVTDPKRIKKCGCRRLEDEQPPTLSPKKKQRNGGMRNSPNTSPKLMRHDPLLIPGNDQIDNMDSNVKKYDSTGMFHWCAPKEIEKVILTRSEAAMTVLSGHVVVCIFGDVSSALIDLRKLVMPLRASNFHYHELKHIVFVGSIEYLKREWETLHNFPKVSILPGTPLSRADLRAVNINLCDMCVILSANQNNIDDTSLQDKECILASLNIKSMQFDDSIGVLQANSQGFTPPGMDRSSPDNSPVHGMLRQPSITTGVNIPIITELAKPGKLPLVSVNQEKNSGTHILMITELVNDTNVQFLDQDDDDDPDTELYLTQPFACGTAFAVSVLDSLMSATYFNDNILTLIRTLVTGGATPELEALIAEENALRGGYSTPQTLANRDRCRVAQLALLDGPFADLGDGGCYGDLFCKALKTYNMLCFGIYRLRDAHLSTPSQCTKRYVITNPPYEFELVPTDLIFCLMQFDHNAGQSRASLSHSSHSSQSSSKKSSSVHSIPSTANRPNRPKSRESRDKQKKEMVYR

TI+-fluorescence enhancement (initial RFU increase)	Compound	block of kurarinone-induced fluorescence enhancement (co-treatment of 1 μM blocker with kurarinone (5 μM))
weaker fluorescence effects	C=C(C)[C@H](CCC(C)(C)O)Cc1c(O)cc(OC)c2c1O[C@H](c1ccc(O)cc1O)CC2=O [kurarinol, reference compound]	
	CC(C)(O)[C@H]1O[C@H]2CC[C@@]3(C)[C@@](O)(CC[C@H]4Cc5c([nH]c6ccccc56)[C@@]43C)C2=CC1=O [pacilin, reference compound]	completely blocked
strong fluorescence increase	O=C1C[C@@H](c2ccc(O)cc2)Oc2cc(O)cc(O)c21 [naringenin]	

Compound	TI+-fluorescence enhancement (initial RFU increase)	block of kurarinone-induced fluorescence enhancement (co-treatment of 1 μM blocker with kurarinone (5 μM))
CC(C)=CCc1c(O)cc(O)c2c1O[C@H](c1ccc(O)cc1O)CC2=O [leachianone G]	strong fluorescence increase	

From patent US11517556B2, “Composition for BKCa channel activation” (GWANGJU INSTITUTE OF SCIENCE AND TECHNOLOGY, priority 2016, dated 2022)
